Experiment: Stability of CV-8972 in aqueous solution at different concentrations and pH
Format: physicochemical
Method: The stability of CV-8972 was analyzed. Aqueous samples containing CV-8972 at different concentrations and pH were incubated for various periods and analyzed.
Form A of CV-8972 were analyzed for stability in aqueous solution. Aqueous samples containing CV-8972 at different concentrations and pH were incubated for various periods and analyzed.

[1] = 276-MBA-172 2 mg/mL pH 6 (Form A), 0 hrs, pH 6.1
[2] = 276-MBA-172 2 mg/mL pH 6 (Form A), 1 hrs, pH 6.1
[3] = 276-MBA-172 2 mg/mL pH 6 (Form A), 4 hrs, pH 6.1
[4] = 276-MBA-172 2 mg/mL pH 6 (Form A), 6 hrs, pH 6.1
[5] = 276-MBA-172 2 mg/mL pH 7 (Form A), 0 hrs, pH 6.7
[6] = 276-MBA-172 2 mg/mL pH 7 (Form A), 1 hrs, pH 6.8
[7] = 276-MBA-172 2 mg/mL pH 7 (Form A), 4 hrs, pH 6.7
[8] = 276-MBA-172 2 mg/mL pH 7 (Form A), 6 hrs, pH 6.7
[9] = 276-MBA-172 2 mg/mL pH 7 (Form A), 22 hrs, pH 6.8
[10] = 276-MBA-172 10 mg/mL pH 6 (Form A), 0 hrs, pH 6.6
[11] = 276-MBA-172 10 mg/mL pH 6 (Form A), 1 hrs, pH 6.8
[12] = 276-MBA-172 10 mg/mL pH 6 (Form A), 4 hrs, pH 6.8
[13] = 276-MBA-172 10 mg/mL pH 6 (Form A), 6 hrs, pH 6.7
[14] = 276-MBA-172 10 mg/mL pH 6 (Form A), 22 hrs, pH 6.7
[15] = 276-MBA-172 10 mg/mL pH 7 (Form A), 0 hrs, pH 7.1
[16] = 276-MBA-172 10 mg/mL pH 7 (Form A), 1 hrs, pH 7.2
[17] = 276-MBA-172 10 mg/mL pH 7 (Form A), 4 hrs, pH 7.1
[18] = 276-MBA-172 10 mg/mL pH 7 (Form A), 6 hrs, pH 7.1
[19] = 289-MBA-15-A 2 mg/mL pH 6 (Form B), 0 hrs, pH 6.9
[20] = 289-MBA-15-A 2 mg/mL pH 6 (Form B), 1 hrs, pH 6.9
[21] = 289-MBA-15-A 2 mg/mL pH 6 (Form B), 4 hrs, pH 6.8
[22] = 289-MBA-15-A 2 mg/mL pH 6 (Form B), 6 hrs, pH 6.8

Retention Time 4.2 [1]: 1.29
Retention Time 5.6 [1]: 98.01
Decrease in purity of CV-8972 between time points [2]: 0.79
Retention Time 2.2 [2]: 1.5
Retention Time 4.2 [2]: 1.28
Retention Time 5.6 [2]: 97.22
Decrease in purity of CV-8972 between time points [3]: 0.21
Retention Time 2.2 [3]: 2.03
Retention Time 4.2 [3]: 0.95
Retention Time 5.6 [3]: 97.01
Decrease in purity of CV-8972 between time points [4]: 0.5
Retention Time 2.2 [4]: 2.47
Retention Time 4.2 [4]: 1.02
Retention Time 5.6 [4]: 96.51
Retention Time 2.2 [5]: 1.42
Retention Time 4.2 [5]: 1.05
Retention Time 5.6 [5]: 97.53
Decrease in purity of CV-8972 between time points [6]: 2.47
Retention Time 2.2 [6]: 3.31
Retention Time 4.2 [6]: 1.06
Retention Time 4.7 [6]: 0.57
Retention Time 5.6 [6]: 95.06
Decrease in purity of CV-8972 between time points [7]: 1.36
Retention Time 2.2 [7]: 4.21
Retention Time 2.6 [7]: 0.58
Retention Time 4.2 [7]: 0.82
Retention Time 4.7 [7]: 0.69
Retention Time 5.6 [7]: 93.7
Decrease in purity of CV-8972 between time points [8]: 1.58
Retention Time 2.2 [8]: 5.63
Retention Time 2.6 [8]: 0.67
Retention Time 4.2 [8]: 0.74
Retention Time 4.7 [8]: 0.85
Retention Time 5.6 [8]: 92.12
Decrease in purity of CV-8972 between time points [9]: 1.05
Retention Time 2.2 [9]: 6.26
Retention Time 2.6 [9]: 0.85
Retention Time 4.2 [9]: 0.85
Retention Time 4.7 [9]: 0.98
Retention Time 5.6 [9]: 91.07
Retention Time 2.2 [10]: 3.39
Retention Time 2.6 [10]: 0.6
Retention Time 4.2 [10]: 0.23
Retention Time 4.7 [10]: 0.54
Retention Time 5.6 [10]: 95.24
Decrease in purity of CV-8972 between time points [11]: 1.81
Retention Time 2.2 [11]: 4.81
Retention Time 2.6 [11]: 0.81
Retention Time 4.2 [11]: 0.23
Retention Time 4.7 [11]: 0.73
Retention Time 5.6 [11]: 93.43
Decrease in purity of CV-8972 between time points [12]: 1.61
Retention Time 2.2 [12]: 5.72
Retention Time 2.6 [12]: 0.9
Retention Time 4.2 [12]: 0.21
Retention Time 4.7 [12]: 0.83
Retention Time 5.6 [12]: 91.82
Decrease in purity of CV-8972 between time points [13]: 0.02
Retention Time 2.2 [13]: 6.45
Retention Time 2.6 [13]: 0.81
Retention Time 4.7 [13]: 0.93
Retention Time 5.6 [13]: 91.8
Decrease in purity of CV-8972 between time points [14]: 2.14
Retention Time 2.2 [14]: 7.38
Retention Time 2.6 [14]: 1.54
Retention Time 4.2 [14]: 0.13
Retention Time 4.7 [14]: 1.11
Retention Time 5.6 [14]: 89.66
Retention Time 2.2 [15]: 5.9
Retention Time 2.6 [15]: 0.94
Retention Time 4.2 [15]: 0.22
Retention Time 4.7 [15]: 0.78
Retention Time 5.6 [15]: 92.85
Decrease in purity of CV-8972 between time points [16]: 3.8
Retention Time 2.2 [16]: 8.12
Retention Time 2.6 [16]: 1.45
Retention Time 4.2 [16]: 0.21
Retention Time 4.7 [16]: 1.17
Retention Time 5.6 [16]: 89.05
Decrease in purity of CV-8972 between time points [17]: 2.25
Retention Time 2.2 [17]: 10.14
Retention Time 2.6 [17]: 1.48
Retention Time 4.2 [17]: 0.13
Retention Time 4.7 [17]: 1.46
Retention Time 5.6 [17]: 86.8
Decrease in purity of CV-8972 between time points [18]: 2.01
Retention Time 2.2 [18]: 11.63
Retention Time 2.6 [18]: 1.78
Retention Time 4.2 [18]: 0.13
Retention Time 4.7 [18]: 1.67
Retention Time 5.6 [18]: 84.79
Retention Time 2.2 [19]: 1.33
Retention Time 4.2 [19]: 1.19
Retention Time 5.6 [19]: 97.48
Decrease in purity of CV-8972 between time points [20]: 2.38
Retention Time 2.2 [20]: 3.73
Retention Time 4.2 [20]: 1.17
Retention Time 5.6 [20]: 95.1
Decrease in purity of CV-8972 between time points [21]: 2.65
Retention Time 2.2 [21]: 5.25
Retention Time 2.6 [21]: 0.67
Retention Time 4.2 [21]: 0.84
Retention Time 4.7 [21]: 0.79
Retention Time 5.6 [21]: 92.45
Decrease in purity of CV-8972 between time points [22]: 1.8
Retention Time 2.2 [22]: 6.63
Retention Time 2.6 [22]: 0.9
Retention Time 4.2 [22]: 0.83
Retention Time 4.7 [22]: 0.99
Retention Time 5.6 [22]: 90.65
Decrease in purity of CV-8972 between time points (289-MBA-15-A 2 mg/mL pH 6 (Form B), 22 hrs, pH 6.7): 1.5
SMILES: COc1ccc(CN2CCN(CCOC(=O)c3cccnc3)CC2)c(OC)c1OC [CV-8972, 2-(4-(2,3,4-trimethoxybenzyl)piperazin-1-yl)ethyl nicotinate]

Source: patent publication US20220249463A1, “METHODS OF ALTERING CARDIAC REMODELING USING COMPOUNDS THAT PROMOTE GLUCOSE OXIDATION” (IMBRIA PHARMACEUTICALS, INC., priority 2019, published 2022)
